Assay results published in patent US10440955B2, “Methods comprising a biocidal polyamine” (Curza Global, LLC, priority 2013, dated 2019).
“And” between values parts separate entries of the source, which are not always exact repeats. Identical values can stand only once. Counter-ions that a name gives are not always drawn. Like-named read-outs stand apart in the source and are kept apart here. Blank lines part the entries; values can stand above or below the compound they belong to.

Columns and labels:
MRSA biofilms [1] = assay: EBEC, high number biofilms on PEEK membranes, 10^9 to 10^2 CFU/PEEK membrane in 24 hours; format: cell-based; settings: Staphylococcus aureus, read-out: MICs (μg/mL) II: MRSA
A. baumannii biofilms [2] = assay: as above; format: cell-based, Acinetobacter baumannii; settings: Table 3B c4, group head missing
MRSA = assay: MIC against MRSA (as defined by CLSI); format: cell-based; settings: Staphylococcus aureus, FIG. 25
Experimental: To determine the MIC of the polyamine chains alone and the synthesized compounds against MRSA and P. aeruginosa ATCC 27853, a modified protocol from the Clinical and Laboratory Standards Institute (CLSI) guideline M26-A was used. […] All data was collected using cation adjusted MHB for standardization.
As mentioned, MRSA and P. aeruginosa ATCC 27853 were grown on Columbia blood agar plates prior to experimentation. From the blood agar plates, a 0.5 McFarland standard was made of each isolate. This equated to approximately 5×10^7 cells/mL for the MRSA isolate and approximately 3×10^7 cells/mL for the P. aeruginosa ATCC 27853 isolate. Of the 0.5 McFarland stock solution, 50 μL were added to MHB. […] All tests were performed such that a final volume of 5 mL of MHB were obtained. This provided a final bacterial concentration of approximately 5×10^5 cells/mL.
Each sample was incubated in glass test tubes at 37° C. for 24 hours, then plated in duplicate on tryptic soy agar (TSA) using a 10-fold dilution series. TSA plates were further incubated 24 hours at 37° C. The number of colony forming units (CFU) that grew were counted in order to calculate the number of bacteria that were present per mL in the original MHB solution.

A. baumannii biofilms [3] = assay: MBEC, MBEC Inoculation Tray (Innovotech), to 10^2 CFU/peg in 24 hours; format: cell-based, Acinetobacter baumannii; settings: Table 3B c1, group head missing, probably MBEC
P. aeruginosa biofilms = assay: EBEC, high number biofilms on PEEK membranes, 10^9 to 10^2 CFU/PEEK membrane in 24 hours; format: cell-based; settings: Pseudomonas aeruginosa; Table 3B c3; group head missing; read-out: MICs (μg/mL) II: P. aeruginosa
Experimental: In addition to determining the MIC and the MBEC of polyamine compounds against planktonic bacteria and low number biofilms, our group wanted to determine the efficacy of polyamine compounds against high number biofilms. To do so, biofilms were grown on the surface of polyetheretherketone (PEEK) membranes using a membrane biofilm reactor. This reactor is similar to the CDC biofilm reactor, but rather than growing biofilms on coupon surfaces, the reactor was modified to hold PEEK membranes. In short, to grow biofilms within this system, 500 mL of brain heart infusion (BHI) broth were inoculated with 1 mL of a 0.5 McFarland. The reactor was placed on a hot plate set at 34° C. and the bacteria were grown under batch conditions for 24 hours. Following this protocol, biofilms typically grow to 10^9 CFU/PEEK membrane. […] A solution of 10% BHI was then flowed through the reactor at a rate of 6.94 mL/min for an additional 24 hours. PEEK membranes were then removed and placed into 2 mL of CAMHB that contained a desired concentration of polyamine compound or antibiotic. The EBEC was defined as the concentration of antimicrobial required to reduce a biofilm from approximately 10^9 CFU/PEEK membrane to approximately 10^2 CFU/PEEK membrane in a 24-hour period.

MRSA biofilms [4] = assay: MBEC, MBEC Inoculation Tray (Innovotech), to 10^2 CFU/peg in 24 hours; format: cell-based; settings: Staphylococcus aureus, read-out: MICs (μg/mL): MRSA
A. baumannii = assay: MIC, 96-well CAMHB, 10^5 to 10^2 CFU/mL in 24 hours; format: cell-based, Acinetobacter baumannii; settings: for MIC: Acinetobacter baumannii
Experimental: To determine the MIC of polyamine compounds, the protocol described herein was used.
In brief, a 0.5 McFarland of each bacterial isolate was made. A 0.5 McFarland is a measure of turbidity in a liquid sample that contains approximately 1×10^∧8 CFU/mL. The 0.5 McFarland standard was diluted in cation adjusted Mueller Hinton Broth (CAMHB), and 50 μL of broth were added to a well of a 96-well plate. In addition, 50 μL of CAMHB that contained a desired concentration of antimicrobial were also added to the well for a final volume of 100 μL and a final concentration of approximately 5×10^4 CFU/well (which equated to approximately 5×10^5 CFU/mL). Each well contained a desired amount of polyamine compound in order to experimentally determine the MIC. Each 96-well plate was incubated at 37° C. for 24 hours. The contents of each well were plated on tryptic soy agar (TSA). TSA plates were incubated for 37° C. for 24 hours after which the number of CFU were counted and used to calculate the CFU/mL that remained after exposure to varying concentrations of compound. This procedure was repeated n=8 times for each concentration of antimicrobial.
A 0.5 McFarland of A. baumannii is made. A 0.5 McFarland is a measure of turbidity in a liquid sample that contains approximately 7.5×10^7 CFU/mL. The 0.5 McFarland standard is diluted in CAMHB and 50 μL of broth is added to a well of a 96-well plate. In addition, 50 μL of CAMHB that contains a desired concentration of antimicrobial is added to the well for a final volume of 100 μL and a final concentration of approximately 5×10^4 CFU/well (which equates to approximately 5×10^5 CFU/mL). Each well contains a desired amount of CZ compound in order to experimentally determine the MIC. Each 96-well plate is incubated at 37° C. for 24 hours. The contents of each well is plated on tryptic soy agar (TSA). TSA plates is incubated at 37° C. for 24 hours after which the number of CFUs is counted and used to calculate the CFU/mL that remain after exposure to varying concentrations of compound. This procedure is repeated n=8 times for each concentration of antimicrobial. […]

MRSA biofilm = assay: MBEC assay (Calgary Biofilm Device), eradication of 100% of detectable biofilm (Example 2); format: cell-based, Staphylococcus aureus; settings: eradicate 100% of detectable biofilm
Experimental: In addition to determining the MIC, the minimum biofilm eradication concentration (MBEC) of PBC-51 was also determined. The MBEC was determined using the MBEC assay, formerly known as the Calgary Biofilm Device, developed by Innovotech. In this instance, the MBEC was defined as the amount of antimicrobial required to eradicate 100% of detectable biofilm after being grown in the MBEC device. To grow the biofilms within this device, 150 μL of solution containing a concentration of 10^5 cells/mL were inoculated into each well of a 96-well plate. A lid containing 96 pegs was placed onto the plate and incubated for 24 hours at 37° C. while being shaken at 110 rpm. Biofilms developed on the surface of the polystyrene pegs within the 96-well plate. After 24 hours, each peg contained between 10^5 and 10^6 cells in well-established biofilms. The lid with pegs was transferred to a 96-well plate that contained 200 μL of varying concentrations of the compound and was incubated at 37° C. for an additional 24 hours. The plate was then sonicated, and the biofilms quantified using a 10-fold dilution series to determine the MBEC.

[5] = Acinetobacter baumannii, read-out: MICs (μg/mL) II: A. baumannii

MIC (MRSA biofilms [1]; Table 3B c2, group head missing): > 5000 µg/mL
MIC (A. baumannii biofilms [2]; [5]): > 5000 µg/mL
MIC (MRSA): > 1200 µg/mL
MIC (A. baumannii biofilms [3]; [5]): > 500 µg/mL
MIC (P. aeruginosa biofilms): > 5000 µg/mL
MIC (MRSA biofilms [4]; Table 3A c4, group head missing, probably MBEC): > 500 µg/mL
MIC (A. baumannii; Table 3A c3, read-out: MICs (μg/mL): A. baumannii): > 500 µg/mL
MIC (A. baumannii; Table 4, value in parentheses, read-out: MIC μg/mL (μM) A. baumannii): > 2260 µM
MIC (A. baumannii; Table 4, read-out: MIC μg/mL (μM) A. baumannii): > 500 µg/mL
Compound: NCCCNCCCNCc1ccccc1 [CZ-7, benzylnorspermidine]

Compound: NCCCNCCCNCc1cccc(CNCCCNCCCN)c1 [CZ-25, N^1,N^1′-(1,3-phenylenebis(methylene))bis(N3-(3-ammoniopropyl)propane-1,3-diaminium) chloride]
MIC (A. baumannii; read-out: MIC (A. bumannii)): > 100 µM

Compound: NCCCNCCCNCc1cc(CNCCCNCCCN)cc(-c2ccccc2)c1 [CZ-58, N^1,N^1′-([1,1′-biphenyl]-3,5-diylbis(methylene))bis(N^3-(3-ammoniopropyl)propane-1,3-diaminium) chloride]
MIC (A. baumannii; read-out: MIC (A. bumannii)): 50 to 100 µM

Compound: CC(C)CNCCCNCCCNCc1cc(CNCCCNCCCNCC(C)C)cc(-c2ccccc2)c1 [CZ-86, N^1,N^1′-([1,1′-biphenyl]-3,5-diylbis(methylene))bis(N^3-(3-(isobutylamino)propyl)propane-1,3-diamine), hydrochloride salt]
MIC (A. baumannii; read-out: MIC (A. bumannii)): < 50 µM

Compound: CN[C@H](CC(C)C)C(=O)N[C@H]1C(=O)N[C@@H](CC(N)=O)C(=O)N[C@H]2C(=O)N[C@H]3C(=O)N[C@H](C(=O)N[C@H](C(=O)O)c4cc(O)cc(O)c4-c4cc3ccc4O)[C@H](O)c3ccc(c(Cl)c3)Oc3cc2cc(c3O[C@@H]2O[C@H](CO)[C@@H](O)[C@H](O)[C@H]2O[C@H]2C[C@](C)(N)[C@H](O)[C@H](C)O2)Oc2ccc(cc2Cl)[C@H]1O [vancomycin, reference compound]
MBEC (μg/mL/μM) (MRSA biofilm): > 500 μg/mL and > 336.50 μM
MIC (MRSA biofilms [1]): > 25000 µg/mL
MIC (MRSA biofilms [4]): > 500 µg/mL

Compound: Polymyxin B sulfate [reference compound]
MICs (μg/mL) II: A. baumannii (A. baumannii biofilms [2]): 1,000 μg/mL
MICs (μg/mL) II: A. baumannii (A. baumannii biofilms [3]): 50 µg/mL
MICs (μg/mL): A. baumannii (A. baumannii; Table 3A c3): 2 µg/mL
MIC μg/mL (μM) A. baumannii (A. baumannii; Table 4): 1 µg/mL
MIC μg/mL (μM) A. baumannii (A. baumannii; Table 4, value in parentheses): (0.7) μM
